Legend:
Assay in all cases: area under the viability dose-response curve (AUC) (AUC (arbitrary units, max 500 = no viability loss)); higher = less sensitive (higher viability)
Conditions in all cases: exposure time: 120 h; concentration range: 0.1 nM - 10 µM, 6 doses
[1] = test system: 135F2 (fetal-II hepatoblastoma organoid with high liver markers)
Protocol: (§1)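 Patient-derived hepatoblastoma tumor organoids (about 50 organoids per well, 384-well plates, medium with 5% BME) were treated with the PMC pediatric cancer drug library. Each drug was tested in duplicate at 6 concentrations (0.1 nM to 10 µM, 10-fold steps).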

[2] = test system: 27F1 (fetal-I hepatoblastoma organoid with intermediate liver markers)
Protocol: as §1

[3] = test system: 96F1 (fetal-I hepatoblastoma organoid with intermediate liver markers)
Protocol: as §1

[4] = test system: 8F1 (fetal-I hepatoblastoma organoid with intermediate liver markers)
Protocol: as §1

[5] = test system: 22E (embryonal-type hepatoblastoma organoid)
Protocol: as §1

[6] = test system: 3E (embryonal-type hepatoblastoma organoid)
Protocol: as §1

[7] = test system: 13F2 (fetal-II hepatoblastoma organoid with high liver markers)
Protocol: as §1

[8] = test system: 10F2 (fetal-II hepatoblastoma organoid with high liver markers)
Protocol: as §1

[9] = test system: 17E (embryonal-type hepatoblastoma organoid)
Protocol: as §1

[10] = test system: 17F1 (fetal-I hepatoblastoma organoid with intermediate liver markers)
Protocol: as §1

[11] = test system: 13E (embryonal-type hepatoblastoma organoid)
Protocol: as §1

SMILES: Cn1cc(-n2cnc3c(NCc4nc5cc(Cl)c(Cl)cc5[nH]4)nc(N4CCOCC4)nc32)cn1 [SR-4835]
- area under the viability dose-response curve [1]: 277
- area under the viability dose-response curve [2]: 264
- area under the viability dose-response curve [3]: 279
- area under the viability dose-response curve [4]: 292
- area under the viability dose-response curve [5]: 327
- area under the viability dose-response curve [6]: 196

SMILES: CC(C)(CN1C(=O)C(Cl)=C(Cl)C1=O)CN1C(=O)C(Cl)=C(Cl)C1=O
- area under the viability dose-response curve [1]: 497
- area under the viability dose-response curve [2]: > 500
- area under the viability dose-response curve [3]: > 500
- area under the viability dose-response curve [4]: > 500
- area under the viability dose-response curve [5]: 427
- area under the viability dose-response curve [6]: > 500

SMILES: O=P1(N(CCCl)CCCl)NC(OO)CCO1 (configuration not stated) [4-Hydroperoxy cyclophosphamide (Cyclophosphamide)]
- area under the viability dose-response curve [7]: > 500
- area under the viability dose-response curve [8]: 465
- area under the viability dose-response curve [9]: > 500
- area under the viability dose-response curve [10]: > 500
- area under the viability dose-response curve [11]: > 500

SMILES: Cn1cnc2c(F)c(Nc3ccc(Br)cc3Cl)c(C(=O)NOCCO)cc21 [Selumetinib]
- area under the viability dose-response curve [7]: 412
- area under the viability dose-response curve [1]: 430
- area under the viability dose-response curve [8]: 369
- area under the viability dose-response curve [2]: 464
- area under the viability dose-response curve [9]: > 500
- area under the viability dose-response curve [10]: > 500
- area under the viability dose-response curve [3]: 491
- area under the viability dose-response curve [4]: > 500
- area under the viability dose-response curve [11]: 499
- area under the viability dose-response curve [6]: > 500

SMILES: O=C(NC[C@H](O)CO)c1ccncc1Nc1ccc(I)cc1F [Pimasertib]
- area under the viability dose-response curve [1]: 393
- area under the viability dose-response curve [2]: 457
- area under the viability dose-response curve [3]: 467
- area under the viability dose-response curve [4]: > 500
- area under the viability dose-response curve [5]: 445
- area under the viability dose-response curve [6]: 456

SMILES: CC[C@H](C)n1cc(C)c2c(C(=O)NCc3c(C)cc(C)[nH]c3=O)cc(-c3ccc(N4CCNCC4)nc3)cc21 [GSK-126]
- area under the viability dose-response curve [1]: > 500
- area under the viability dose-response curve [2]: 499
- area under the viability dose-response curve [3]: > 500
- area under the viability dose-response curve [4]: > 500
- area under the viability dose-response curve [5]: > 500
- area under the viability dose-response curve [6]: 458

SMILES: N#CC1(c2ccc(NC(=O)c3cccnc3NCc3ccncc3)cc2)CCCC1 [Apatinib]
- area under the viability dose-response curve [7]: 484
- area under the viability dose-response curve [1]: 470
- area under the viability dose-response curve [8]: 490
- area under the viability dose-response curve [2]: > 500
- area under the viability dose-response curve [9]: 476
- area under the viability dose-response curve [3]: 481
- area under the viability dose-response curve [4]: 498
- area under the viability dose-response curve [11]: 497
- area under the viability dose-response curve [5]: 438
- area under the viability dose-response curve [6]: 491

SMILES: Cc1cnc(CNC(=O)c2c(=O)c3ccc(N4CCCN(C)CC4)nc3n3c2sc2ccccc23)cn1 [Pidnarulex]
- area under the viability dose-response curve [1]: 402
- area under the viability dose-response curve [2]: 489
- area under the viability dose-response curve [3]: 453
- area under the viability dose-response curve [4]: 472
- area under the viability dose-response curve [5]: 436
- area under the viability dose-response curve [6]: 396

SMILES: N#Cc1c(Oc2ccc(F)c(NC(=O)Cc3cccc(C(F)(F)F)c3)c2)ccc2nc(NC(=O)C3CC3)sc12 [TAK632]
- area under the viability dose-response curve [1]: 393
- area under the viability dose-response curve [2]: 467
- area under the viability dose-response curve [3]: 417
- area under the viability dose-response curve [4]: 478
- area under the viability dose-response curve [5]: 455
- area under the viability dose-response curve [6]: 472

SMILES: Cc1sc2c(c1C)C(c1ccc(Cl)cc1)=N[C@@H](CC(=O)NCCCN1CCN(C)CC1)c1nnc(C)n1-2 [(S)-JQ-35]
- area under the viability dose-response curve [1]: 388
- area under the viability dose-response curve [2]: 447
- area under the viability dose-response curve [3]: 496
- area under the viability dose-response curve [4]: 345
- area under the viability dose-response curve [5]: 410
- area under the viability dose-response curve [6]: 309

SMILES: CC(C)n1c(=O)n(C)c2cnc3cc(F)c(-c4ccc(OCCCN5CCCCC5)nc4)cc3c21 [AZD1390]
- area under the viability dose-response curve [1]: 440
- area under the viability dose-response curve [2]: > 500
- area under the viability dose-response curve [3]: 471
- area under the viability dose-response curve [4]: 486
- area under the viability dose-response curve [5]: > 500
- area under the viability dose-response curve [6]: 491

SMILES: N[C@@H]1CCCN(c2c(/C=C3\SC(=O)NC3=O)cccc2-c2ccccc2)C1 [AZD1208]
- area under the viability dose-response curve [1]: 487
- area under the viability dose-response curve [2]: 471
- area under the viability dose-response curve [3]: > 500
- area under the viability dose-response curve [4]: > 500
- area under the viability dose-response curve [6]: 430

SMILES: CC(=O)[C@]1(O)Cc2c(O)c3c(c(O)c2[C@@H](O[C@H]2C[C@H](N)[C@H](O)[C@H](C)O2)C1)C(=O)c1ccccc1C3=O [Idarubicin]
- area under the viability dose-response curve [1]: 143
- area under the viability dose-response curve [2]: 273
- area under the viability dose-response curve [3]: 215
- area under the viability dose-response curve [4]: 373
- area under the viability dose-response curve [5]: 313
- area under the viability dose-response curve [6]: 234

SMILES: CC(=O)Nc1cccc(-n2c(=O)n(C3CC3)c(=O)c3c(Nc4ccc(I)cc4F)n(C)c(=O)c(C)c32)c1 [Trametinib]
- area under the viability dose-response curve [7]: 214
- area under the viability dose-response curve [1]: 281
- area under the viability dose-response curve [8]: 172
- area under the viability dose-response curve [2]: 380
- area under the viability dose-response curve [9]: 394
- area under the viability dose-response curve [10]: 428
- area under the viability dose-response curve [3]: 418
- area under the viability dose-response curve [4]: > 500
- area under the viability dose-response curve [11]: 396
- area under the viability dose-response curve [6]: 331

SMILES: COc1cc2c(cc1O)CCN[C@]21CS[C@@H]2c3c(OC(C)=O)c(C)c4c(c3[C@H](COC1=O)N1[C@@H]2[C@H]2c3c(cc(C)c(OC)c3O)C[C@@H]([C@@H]1O)N2C)OCO4 [Trabectedin]
- area under the viability dose-response curve [1]: 57.9
- area under the viability dose-response curve [2]: 117
- area under the viability dose-response curve [3]: 84.9
- area under the viability dose-response curve [4]: 144
- area under the viability dose-response curve [5]: 133
- area under the viability dose-response curve [6]: 24.1

SMILES: CO[C@H]1C[C@@H]2CC[C@@H](C)[C@@](O)(O2)C(=O)C(=O)N2CCCC[C@H]2C(=O)O[C@H]([C@H](C)C[C@@H]2CC[C@@H](O)[C@H](OC)C2)CC(=O)[C@H](C)/C=C(\C)[C@@H](O)[C@@H](OC)C(=O)[C@H](C)C[C@H](C)/C=C/C=C/C=C/1C [Sirolimus]
- area under the viability dose-response curve [7]: 319
- area under the viability dose-response curve [1]: 464
- area under the viability dose-response curve [8]: 391
- area under the viability dose-response curve [2]: > 500
- area under the viability dose-response curve [9]: 257
- area under the viability dose-response curve [10]: > 500
- area under the viability dose-response curve [3]: > 500
- area under the viability dose-response curve [4]: 476
- area under the viability dose-response curve [11]: 389
- area under the viability dose-response curve [6]: 249

SMILES: Cn1cc(-c2cc3c(N4CCN(c5ncc([C@@](C)(N)c6ccc(F)cc6)cn5)CC4)ncnn3c2)cn1 [Avapritinib]
- area under the viability dose-response curve [1]: 437
- area under the viability dose-response curve [2]: 473
- area under the viability dose-response curve [3]: 452
- area under the viability dose-response curve [4]: 478
- area under the viability dose-response curve [5]: 433
- area under the viability dose-response curve [6]: 455

SMILES: C[C@@H]1C[C@H](C)CN(S(=O)(=O)c2ccc3c(c2)C(=NO)c2cc(S(=O)(=O)N4C[C@H](C)C[C@H](C)C4)ccc2C3=NO)C1 [Tegavivint]
- area under the viability dose-response curve [4]: 338
- area under the viability dose-response curve [6]: 236

SMILES: O=C(O)C1(C(=O)O)CCC1.[NH2-].[NH2-].[Pt+2] [Carboplatin]
- area under the viability dose-response curve [7]: 462
- area under the viability dose-response curve [1]: 494
- area under the viability dose-response curve [8]: 470
- area under the viability dose-response curve [2]: 487
- area under the viability dose-response curve [9]: 491
- area under the viability dose-response curve [10]: 494
- area under the viability dose-response curve [3]: 476
- area under the viability dose-response curve [4]: 433
- area under the viability dose-response curve [5]: > 500
- area under the viability dose-response curve [6]: 478

SMILES: Cc1c(Cl)ccc2c1N=C/C2=C\c1[nH]c(=O)n(C(C(=O)NC(CO)CO)c2ccc(F)c(F)c2)c1O (configuration not stated) [RO-5963]
- area under the viability dose-response curve [1]: 459
- area under the viability dose-response curve [3]: 446
- area under the viability dose-response curve [5]: 449

SMILES: CO[C@@H](C)Cn1c(=O)n(C)c2cnc3ccc(-c4cncc(C(C)(C)O)c4)cc3c21 [Samotolisib]
- area under the viability dose-response curve [7]: 334
- area under the viability dose-response curve [1]: 361
- area under the viability dose-response curve [8]: 372
- area under the viability dose-response curve [2]: 424
- area under the viability dose-response curve [9]: 357
- area under the viability dose-response curve [10]: 446
- area under the viability dose-response curve [3]: 406
- area under the viability dose-response curve [4]: 442
- area under the viability dose-response curve [11]: 364
- area under the viability dose-response curve [6]: 306

SMILES: O=C(Nc1ccc(Cl)c(C(F)(F)F)c1)NC1CCC(Oc2ccc(C(F)(F)F)cn2)CC1 (configuration not stated) [UC2288]
- area under the viability dose-response curve [1]: 468
- area under the viability dose-response curve [2]: 490
- area under the viability dose-response curve [3]: 484
- area under the viability dose-response curve [4]: 486
- area under the viability dose-response curve [5]: 477
- area under the viability dose-response curve [6]: 371

Reference: the supplement of paper PMC11579375
